Data as given in patent US12304898B2, “Quinolyl-containing compound and pharmaceutical composition, and use thereof” (PrimeGene (Beijing) Co., Ltd., priority 2019, dated 2025).

Legend:
HDAC6 = HDAC6 (Homo sapiens (Human), UniProt Q9UBN7); assay: HDAC6 fluorescence analysis, inhibition of HDAC6 activity; format: biochemical; conditions: HDAC6 0.3 nM solution, substrate 15 μM, fluorescence readout; read-out: IC50, inhibitory effect on HDAC6
Experimental: HDAC6 fluorescence analysis method was used to detect the inhibitory effect of the compounds on the activity of HDAC6. The specific operation is as follows:
Prepare a 10 mM stock solution of a compound with DMSO. Take 10 μl of stock solution and dilute with 90 μl DMSO to become a 1 mM working solution. […] Add 3 μl of each concentration to 197 μl reaction buffer (20 mM Hepes pH 8.0, 137 mM NaCl, 2.7 mM KCl, 1 mM MgCl2, 0.05% BSA, 0.5 mM TCEP), mix well and add 10 μl to a 384-well plate. In the final reaction system, the concentrations of the compound were 10 μM to 0.51 nM. Duplicate, and add 10 μl 3XHDAC solution (BPS, Cat. 50006, 0.3 nM) to each well, followed by incubating at 23° C. for 20 minutes. Then, add 3× substrate solution (Anaspec, Cat. 61855, 15 μM), centrifuge to mix, and incubate at 23° C. for 90 minutes. Add 30 μl trypsin/SAHA mixture (20 mM Hepes pH 8.0, 100 mM NaCl, 10 mM SAHA, 0.01 mg/ml trypsin), incubate at 23° C. for 60 minutes to terminate the reaction. Finally, read fluorescence data by Envision (390 nm excitation, 460 nm emission). […] Finally, analyze the data by XLfit5 software and calculate the IC50 value of the compound. Vorinostat (SAHA) was a positive reference compound.

VEGFR2 (KDR) = VEGFR2 (KDR) (Homo sapiens (Human), UniProt P35968); assay: VEGFR2 (KDR) mobility shift assay; format: biochemical; conditions: VEGFR2 0.5 nM, ATP 95 μM, read-out: IC50, inhibitory effect on kinase VEGFR2
Experimental: Detect compounds on VEGFR2 (KDR) by mobility shift assay. The initial test concentration of a compound was 1000 nM, 3 times dilution, 10 concentrations, and detection in duplicate. Nintedanib (Selleckchem, Cat. S1010) was used as the positive control compound. The operation method was briefly described as follows: kinase VEGFR2 (Carna, Cat. 08-191) at the final concentration of 0.5 nM and the test compound were mixed in the Optiplate-384F well plate and incubated for 10 minutes at room temperature. Then, ATP at a final concentration of 95 μM and 3 μM Kinase substrate 22 (Gill Biochemical (glbiochem), Cat. 112393) were added. After mixing, react at room temperature for 30 minutes. Add stop detection solution to terminate the reaction and read the conversion rate with Caliper EZ ReaderlI.
Wherein, Conversion %_sample refers to the conversion rate reading of the sample; Conversion %_min: the average value of the negative control wells, which represents the conversion rate readings of the wells without enzyme activity; Conversion %_max: the average value of the positive control wells, represents the conversion rate readings of the wells without compound inhibition.
Fitting the dose-response curve: Take the log of the concentration as the X-axis, and the percentage of inhibition rate as the Y-axis. The dose response curve was fitted by the analysis software GraphPad Prism 5 with log(inhibitor) vs. response—Variable slope to obtain the inhibitory activity (IC50) of each compound.

Sequence of VEGFR2 (KDR) (P35968 790-1356): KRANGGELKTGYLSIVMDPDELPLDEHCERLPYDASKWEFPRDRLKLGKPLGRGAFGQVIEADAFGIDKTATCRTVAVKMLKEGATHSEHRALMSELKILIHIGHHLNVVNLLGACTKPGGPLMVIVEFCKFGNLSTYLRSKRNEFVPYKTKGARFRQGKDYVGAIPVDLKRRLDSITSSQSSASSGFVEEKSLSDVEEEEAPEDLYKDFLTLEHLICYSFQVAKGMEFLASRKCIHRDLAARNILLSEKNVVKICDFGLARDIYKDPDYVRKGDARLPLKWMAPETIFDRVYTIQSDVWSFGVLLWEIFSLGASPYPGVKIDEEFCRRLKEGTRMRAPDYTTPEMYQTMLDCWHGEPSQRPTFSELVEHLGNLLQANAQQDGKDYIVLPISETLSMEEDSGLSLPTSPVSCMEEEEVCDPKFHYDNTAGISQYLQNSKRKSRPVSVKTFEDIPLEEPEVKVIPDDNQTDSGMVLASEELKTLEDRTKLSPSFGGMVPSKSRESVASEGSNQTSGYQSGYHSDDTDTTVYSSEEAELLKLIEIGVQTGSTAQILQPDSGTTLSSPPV
Sequence of HDAC6 (Q9UBN7 whole entry): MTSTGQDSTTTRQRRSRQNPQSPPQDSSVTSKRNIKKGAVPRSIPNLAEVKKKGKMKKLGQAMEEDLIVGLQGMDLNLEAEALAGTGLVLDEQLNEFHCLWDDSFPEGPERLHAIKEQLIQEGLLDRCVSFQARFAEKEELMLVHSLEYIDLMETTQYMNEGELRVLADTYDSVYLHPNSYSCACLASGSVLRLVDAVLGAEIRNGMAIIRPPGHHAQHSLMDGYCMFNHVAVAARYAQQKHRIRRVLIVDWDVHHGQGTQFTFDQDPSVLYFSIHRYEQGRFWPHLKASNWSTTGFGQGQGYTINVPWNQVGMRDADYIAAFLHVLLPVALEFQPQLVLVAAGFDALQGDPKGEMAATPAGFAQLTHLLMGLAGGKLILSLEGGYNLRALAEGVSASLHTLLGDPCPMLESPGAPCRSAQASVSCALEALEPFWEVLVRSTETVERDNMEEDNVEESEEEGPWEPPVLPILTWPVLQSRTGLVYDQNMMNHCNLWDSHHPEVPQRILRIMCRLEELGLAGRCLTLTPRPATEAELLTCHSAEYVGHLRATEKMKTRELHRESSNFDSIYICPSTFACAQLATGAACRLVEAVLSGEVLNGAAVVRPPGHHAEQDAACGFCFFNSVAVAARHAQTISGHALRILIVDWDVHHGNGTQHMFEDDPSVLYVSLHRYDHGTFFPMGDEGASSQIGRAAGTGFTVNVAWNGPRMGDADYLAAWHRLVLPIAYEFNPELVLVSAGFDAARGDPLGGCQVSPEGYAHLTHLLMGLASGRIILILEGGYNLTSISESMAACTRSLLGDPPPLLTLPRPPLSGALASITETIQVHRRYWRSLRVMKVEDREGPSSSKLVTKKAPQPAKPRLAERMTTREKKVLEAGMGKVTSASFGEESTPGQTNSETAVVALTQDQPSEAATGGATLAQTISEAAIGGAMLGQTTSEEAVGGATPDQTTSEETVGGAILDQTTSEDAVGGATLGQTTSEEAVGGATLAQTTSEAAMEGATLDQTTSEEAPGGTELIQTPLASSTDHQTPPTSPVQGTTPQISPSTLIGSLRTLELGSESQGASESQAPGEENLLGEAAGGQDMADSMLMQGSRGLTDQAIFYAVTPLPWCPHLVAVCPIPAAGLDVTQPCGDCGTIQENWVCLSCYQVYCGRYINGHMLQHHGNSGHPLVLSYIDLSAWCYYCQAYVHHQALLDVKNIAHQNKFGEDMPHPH

| IC50 (HDAC6) [nM] | IC50 (VEGFR2 (KDR)) [nM] | Structure (SMILES) |
| --- | --- | --- |
| 16.3 | 17 | COc1cc2c(Oc3ccc(NC(=O)C4(C(=O)Nc5ccc(F)cc5)CC4)cc3F)ccnc2cc1OCCCCNC(=O)CS [Example 62] |
| 28.8 | 51 | COc1cc2c(Oc3ccc(NC(=O)C4(C(=O)Nc5ccc(F)cc5)CC4)cc3F)ccnc2cc1OCCCCCCNC(=O)CS [Example 64] |
| 8.94 | 0.96 | CC(=O)SCC(=O)NCCCCCOc1cc2nccc(Oc3ccc(NC(=O)NC4CC4)c(Cl)c3)c2cc1C(N)=O [Example 69, S-(2-((5-((6-carbamoyl-4-(3-chloro-4-(3-cyclopropylurea)phenoxy)quinolin-7-yl)oxy)pentyl)amino)-2-oxo-ethyl)thioacetate] |
| 27 | 4.6 | CC(=O)SCC(=O)NCCCCCOc1cc2nccc(Oc3ccc(NC(=O)C4(C(=O)Nc5ccc(F)cc5)CC4)cc3F)c2cc1C(N)=O [Example 71, S-(2-((5-((6-carbamoyl-4-(2-fluoro-4-(1-((4-fluorophenyl)carbamoyl)cyclopropane-1-methylamido)phenoxy)quinolin-7-yl)oxy)pentyl)amino)-2-oxo-ethyl)thioacetate] |
